Results from patent US11186578B2, “Substituted pyrrolo[3,2-d]pyrimidines and pyrazolo[4,3-d]pyrimidines as tyrosine kinase inhibitors” (Shenzhen TargetRx, Inc., priority 2016, dated 2021).
pIC50: −log10 of the molar value.

How the values were obtained:
BTK = BTK (Homo sapiens (Human), UniProt Q06187); experiment: Kinase inhibition test (HTRF); format: biochemical; conditions: 1 nM BTK, 20 μM ATP
Description: (1) Kinase Inhibition Test
1) Compound dilution: The test compounds were dissolved in DMSO to make a 10 mM stock solution. […] 2) Kinase assay: in a 10 μL reaction system (containing buffer 50 mM Hepes (pH 7.5), 5 mM MgCl2, 0.01 mM Na3VO4, 1% BSA) in a 384-well plate, 1 nM BTK, 1 μM biotin-TK peptide (from HTRF-TK kit) and 20 μM ATP were incubated at 23° C. for 90 minutes.

[1] = Metabolic stability in human liver microsomes; format: in vitro ADME; conditions: pH 7.4, 1 μM compound, 0.5 mg/mL protein
Description: (§1) (2) Metabolic Stability Evaluation Experiments in Microsome:
(§2) 2) Preparation of phosphate buffer (100 mM, pH 7.4): 150 mL of pre-formulated 0.5 M potassium dihydrogen phosphate was taken and mixed with 700 mL of 0.5 M dipotassium hydrogen phosphate solution, and the pH of the mixture was adjusted to 7.4 with 0.5 M dipotassium hydrogen phosphate solution. Before use it was diluted by 5 times with ultrapure water, and magnesium chloride was added to obtain the phosphate buffer (100 mM), which contains 100 mM potassium phosphate, 3.3 mM magnesium chloride, and a pH of 7.4. […] 4) Preparation of stop solution: The stop solution was an acetonitrile solution containing 50 ng/mL propranolol hydrochloride and 200 ng/mL tolbutamide (internal standard). […] 6) Incubation of the sample: The stock solutions of the corresponding compounds were diluted to 0.25 mM with an aqueous solution containing 70% acetonitrile, which is used as a working solution and is ready for use. 398 μL of human liver microsomes dilution or rat liver microsome dilution was added to 96-well incubation plates (N=2), and 2 μL of 0.25 mM working solutions were added respectively, and evenly mixed. 7) Determination of metabolic stability: 300 μL of pre-cooled stop solution was added to each well of a 96-well deep well plate, which was placed on ice as a stop plate. The 96-well incubation plate and the NADPH regeneration system were placed in a 37° C. water bath, shaken at 100 rpm, and pre-incubated for 5 min. 80 μL of the incubation solution was taken from each well of the incubation plate, added to the stop plate, evenly mixed, and 20 μL of the NADPH regeneration system solution was added as 0 minute sample. Then, 80 μL of the NADPH regeneration system solution was added to each well of the incubation plate to start the reaction and start timing. […] 100 μL of the reaction solutions were taken at 10, 30, and 90 min, respectively, added to the stop place, and the reaction was terminated by vortexing for 3 min. The plate was centrifuged at 5000×g for 10 min at 4° C. 100 μL of the supernatant was taken and added into a 96-well plate to which 100 μL of distilled water was previously added, evenly mixed, and samples were analyzed by LC-MS/MS. 8) Data analysis: The peak area of the corresponding compounds and the internal standard was detected by LC-MS/MS system, and the ratio of the peak area of the compounds to the internal standard was calculated.

RAMOS = RAMOS IC50; format: cell-based; conditions: Homo sapiens
[2] = Metabolic stability in rat liver microsomes; format: in vitro ADME, SD rat; conditions: Sprague-Dawley, pH 7.4, 1 μM compound, 0.5 mg/mL protein
Description: as §1, §2

[3] = male, Sprague-Dawley, rat, in vivo
in vivo = conditions: male, Sprague-Dawley, rat
[4] = Pharmacokinetic experiments in rats; conditions: male, Sprague-Dawley, rat, in vivo

BTK, sequence (Q06187 whole entry): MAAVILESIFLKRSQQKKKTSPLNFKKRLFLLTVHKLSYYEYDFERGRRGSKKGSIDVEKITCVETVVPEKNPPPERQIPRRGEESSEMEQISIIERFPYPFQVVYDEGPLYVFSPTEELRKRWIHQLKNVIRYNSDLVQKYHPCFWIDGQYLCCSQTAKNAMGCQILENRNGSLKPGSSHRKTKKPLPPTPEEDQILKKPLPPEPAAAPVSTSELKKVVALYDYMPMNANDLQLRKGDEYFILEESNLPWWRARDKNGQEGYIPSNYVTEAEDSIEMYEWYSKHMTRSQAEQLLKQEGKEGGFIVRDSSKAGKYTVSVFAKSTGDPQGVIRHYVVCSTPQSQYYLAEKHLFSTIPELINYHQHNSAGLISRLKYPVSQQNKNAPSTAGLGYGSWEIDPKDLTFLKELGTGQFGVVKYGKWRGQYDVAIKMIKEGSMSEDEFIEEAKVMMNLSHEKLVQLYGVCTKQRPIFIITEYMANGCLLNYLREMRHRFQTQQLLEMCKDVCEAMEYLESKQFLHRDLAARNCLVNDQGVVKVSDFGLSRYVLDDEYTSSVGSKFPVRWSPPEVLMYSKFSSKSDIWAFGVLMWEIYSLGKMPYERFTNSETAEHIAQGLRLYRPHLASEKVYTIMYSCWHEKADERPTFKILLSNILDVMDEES

| Compound | pIC50 (BTK) | half-life at 1 μM [1] | microsomal CLint at 1 μM [1] | pIC50 (RAMOS) | half-life at 1 μM [2] | microsomal CLint at 1 μM [2] | F [3] | AUC(0-t) (in vivo; iv, 0.5 mg/kg) | Cmax (in vivo; iv, 0.5 mg/kg) | Tmax (in vivo; iv, 0.5 mg/kg) | AUC(0-t) (in vivo; po, 10 mg/kg) | Cmax (in vivo; po, 10 mg/kg) | Tmax (in vivo; po, 10 mg/kg) | AUC(0-t) ([4]; iv, 0.5 mg/kg) | Cmax ([4]; iv, 0.5 mg/kg) | Tmax ([4]; iv, 0.5 mg/kg) | AUC(0-t) ([4]; po, 10 mg/kg) | Cmax ([4]; po, 10 mg/kg) | Tmax ([4]; po, 10 mg/kg) |
| --- | --- | --- | --- | --- | --- | --- | --- | --- | --- | --- | --- | --- | --- | --- | --- | --- | --- | --- | --- |
| C=CC(=O)N1CCC[C@@H](c2cn(-c3ccc(Oc4ccccc4)cc3)c3c(N)ncnc23)C1 [Example 3, (S)-1-(3-(4-amino-5-(4-phenoxyphenyl)-5H-pyrrolo[3,2-d]pyrimidin-7-yl)piperidin-1-yl)prop-2-en-1-one] | > 9.00 | 1.3 min | 1100 µL/min/mg | > 7.00 |  |  |  |  |  |  |  |  |  |  |  |  |  |  |  |
| C=CC(=O)N1CCC[C@H](c2cn(-c3ccc(Oc4ccccc4)cc3)c3c(N)ncnc23)C1 [Example 4, (R)-1-(3-(4-amino-5-(4-phenoxyphenyl)-5H-pyrrolo[3,2-d]pyrimidin-7-yl)piperidin-1-yl)prop-2-en-1-one] | > 9.00 | 3.5 min | 399 µL/min/mg | > 7.00 | 2.9 min | 483 µL/min/mg |  |  |  |  |  |  |  |  |  |  |  |  |  |
| C=CC(=O)N1CCC[C@@H](c2nn(-c3ccc(Oc4ccccc4)cc3)c3c(N)ncnc23)C1 [Example 5, (R)-1-(3-(7-amino-1-(4-phenoxyphenyl)-1H-pyrazolo[4,3-d]pyrimidin-3-yl)piperidin-1-yl)prop-2-en-1-one] | > 9.00 | 1.5 min | 922 µL/min/mg | > 7.00 |  |  |  |  |  |  |  |  |  |  |  |  |  |  |  |
| C=CC(=O)N1CCC[C@H](c2nn(-c3ccc(Oc4ccccc4)cc3)c3c(N)ncnc23)C1 [Example 6, (S)-1-(3-(7-amino-1-(4-phenoxyphenyl)-1H-pyrazolo[4,3-d]pyrimidin-3-yl)piperidin-1-yl)prop-2-en-1-one] | > 9.00 | 12.5 min | 111 µL/min/mg | > 7.00 | 4.1 min | 338 µL/min/mg |  |  |  |  |  |  |  |  |  |  |  |  |  |
| C=CC(=O)N1CCC[C@@H](c2nc(-c3ccc(Oc4ccccc4)cc3)c3c(N)nccn23)C1 [Example 7, (R)-1-(3-(8-amino-1-(4-phenoxyphenyl)imidazo[1,5-a]pyrazin-3-yl)piperidin-1-yl)prop-2-en-1-one] | > 9.00 | 5.7 min | 243 µL/min/mg | > 7.00 | 2.4 min | 576 µL/min/mg | 23.20% | 401 ng·h/mL | 966 ng/mL | 4.8 min | 931 ng·h/mL | 365 ng/mL | 40.2 min |  |  |  |  |  |  |
| C=CC(=O)N1CCC[C@@H](n2nc(-c3ccc(Oc4ccccc4)cc3)c3c(N)ncnc32)C1 [Ibrutinib] |  |  |  | > 7.00 |  |  |  |  |  |  |  |  |  | 437 ng·h/mL | 1230 ng/mL | 4.8 min | 727 ng·h/mL | 250 ng/mL | 30 min |
